# Experimental data taken from US4339580A, “Piperazinylalkoxyindanes and acid addition salts thereof” (Mitsubishi Chemical Industries, Limited, priority 1979, dated 1982).
# Read-outs that look alike come from different tables or passages of the source.
# Legend:
# [1] = LD50 (Litchfield-Wilcoxon method); conditions: mouse, in vivo, PO, mice
# Method: (§1) The animals used were ddy male mice (weighing 20 to 22 g) and they were tested for anti-fighting and anti-morphine actions as indications of anti-anxiety action. The anti-fighting activity of the test compound was evaluated by its suppressing or taming effect against fighting which was developed by applying an electric shock (28 V-DC, 4-5 mA, 3 min.) through a grid to the foot of the animal [R. E. Tedeschi, D. H. Tedeschi, A. Mucha, L. Cook, P. A. Mattis, E. J. Fellows, J. Pharmacol. exp. Therap., 125, 28 (1959)] The anti-morphine activity was evaluated according to the method of Takagi et al. by the suppressing effect against a tail reaction induced by administration of 20 mg/kg i.p. of morphine [H. Takagi, T. Kamioka, S. Kobayashi, Y. Suzuki and K. Tachikawa, Japanese J. of Pharmacology, 66, 107 (1970)].
# The values for LD50 were calculated by the Litchfield-Wilcoxon method [J. T. Litchfield and F. Wilcoxon, J. Pharmacol. exp. Therap., 96, 99 (1949)].
# [2] = system: fighting developed by electric shock; assay: anti-fighting activity (suppressing or taming effect against electric foot shock induced fighting); type: in vivo, ddy male mice; conditions: Mus musculus, 0.05 h, read-out: ED50 taming effect
# Method: (§2) As controls, chlorodiazepoxide which is known as an anti-anxiety agent or minor tranquilizer and a known Compound 40 were used. The results are summarized in terms of 50% effective dose (ED50, mg/kg P.O.) in Table 1 below.
# as §1
# [3] = muscle relaxant action, traction test; type: in vivo, ddy male mice; conditions: Mus musculus, po, read-out: ED50 traction test
# Method: as §2, §1
# Muscle relaxant action was evaluated by a traction test [S. Courvoisier, R. Ducrot, L. Julou, "Psychotropic Drugs" Ed. by S. Garattini, V. Ghetti, p. 313 (Elsevier) 1957].
# [4] = system: tail reaction induced by morphine; assay: anti-morphine activity (suppression of tail reaction induced by 20 mg/kg i.p. morphine); type: in vivo, ddy male mice; conditions: Mus musculus, read-out: ED50 anti-morphine activity
# Method: as §2, §1
# [5] = system: anti-fighting and anti-morphine actions; assay: anti-anxiety activity (anti-fighting and anti-morphine actions as indications); type: in vivo, ddy male mice; conditions: PO, mice; versus chlorodiazepoxide and Compound 40
# Method: as §2, §1
# [6] = PO, mice, electric shock 28 V-DC, 4-5 mA, 3 min.
# [7] = PO, mice, morphine 20 mg/kg i.p.
Structure (SMILES),LD50 [1] [mg/kg],ED50 ([2]; po) [mg/kg],ED50 [3] [mg/kg],ED50 ([4]; po) [mg/kg],"ED50 [2, 6] [mg/kg]","ED50 [4, 7] [mg/kg]",anti-anxiety activities compared with controls [5]
"CNC1=Nc2ccc(Cl)cc2C(c2ccccc2)=[N+]([O-])C1 [Chlorodiazepoxide, reference compound]",720,12.5,8.3,13,–,–,–
"c1ccc(N2CCN(CCCOc3ccc4c(c3)CCC4)CC2)cc1 [Compound 1, 5-[3-(4-phenyl-1-piperazinyl)propoxy]indane]",> 1500,–,14.1,–,6.6,6.3,superior to those of chlorodiazepoxide and Compound 40
"Fc1ccc(N2CCN(CCCOc3ccc4c(c3)CCC4)CC2)cc1 [Compound 4, 5-{3-[4-(4-fluorophenyl)-1-piperazinyl]propoxy}indane]",> 2000,–,28,–,7.5,6,superior to those of chlorodiazepoxide and Compound 40
"Fc1ccc(N2CCN(CCCCOc3ccc4c(c3)CCC4)CC2)cc1 [Compound 5, 5-{4-[4-(4-fluorophenyl)-1-piperazinyl]butoxy}indane]",> 1100,–,21.5,–,12,11.1,superior to those of chlorodiazepoxide and Compound 40
Clc1cccc(N2CCN(CCCOc3ccc4c(c3)CCC4)CC2)c1 [Compound 17],> 2000,–,45,–,12.6,15.5,superior to those of chlorodiazepoxide and Compound 40
"Fc1cc2c(cc1OCCCN1CCN(c3ccccc3)CC1)CCC2 [Compound 18, 6-fluoro-5-[3-(4-phenyl-1-piperazinyl)propoxy]indane]",> 2000,–,14.5,–,2.9,10.6,superior to those of chlorodiazepoxide and Compound 40
"Fc1ccc(N2CCN(CCCOc3cc4c(cc3F)CCC4)CC2)cc1 [Compound 19, 6-fluoro-5-{3-[4-(4-fluorophenyl)-1-piperazinyl]propoxy}indane]",> 2000,–,17.5,–,1,12.5,superior to those of chlorodiazepoxide and Compound 40
"Fc1cc2c(cc1OCCCN1CCN(c3cccc(Cl)c3)CC1)CCC2 [Compound 21, 6-fluoro-5-{3-[4-(3-chlorophenyl)-1-piperazinyl]propoxy}indane]",1500 to 2000,–,88,–,14.5,13.8,superior to those of chlorodiazepoxide and Compound 40
"Cc1cc2c(cc1OCCCN1CCN(c3ccccc3)CC1)CCC2 [Compound 24, 6-methyl-5-[3-(4-phenyl-1-piperazinyl)propoxy]indane]",> 2000,–,46,–,8.5,16,superior to those of chlorodiazepoxide and Compound 40
"COc1cc2c(cc1OCCCN1CCN(c3ccc(F)cc3)CC1)CCC2 [Compound 30, 6-methoxy-5-{3-[4-(4-fluorophenyl)-1-piperazinyl]propoxy}indane]",> 1000,–,12.5,–,13,10.2,superior to those of chlorodiazepoxide and Compound 40
"O=C(CCCN1CCN(c2ccc(F)cc2)CC1)c1ccc2c(c1)CCC2 [Compound 40, reference compound]",1000 to 1500,–,57,–,20,15.5,–
